Results taken from ChEMBL document CHEMBL5149992, “Discovery, Optimization, and Evaluation of Quinazolinone Derivatives with Novel Linkers as Orally Efficacious Phosphoinositide-3-Kinase Delta Inhibitors for Treatment of Inflammatory Diseases” (J Med Chem, 2021).

Key:
[1] = biological target: T1, Phosphatidylinositol 4,5-bisphosphate 3-kinase catalytic subunit delta isoform (Homo sapiens) (UniProt O00329); assay: Inhibition of PI3Kdelta (unknown origin) at 0.01 uM using phosphatidylinositol as substrate incubated for 30 mins in presence of ATP by HTRF based assay relative to control
T1 sequence (whole entry): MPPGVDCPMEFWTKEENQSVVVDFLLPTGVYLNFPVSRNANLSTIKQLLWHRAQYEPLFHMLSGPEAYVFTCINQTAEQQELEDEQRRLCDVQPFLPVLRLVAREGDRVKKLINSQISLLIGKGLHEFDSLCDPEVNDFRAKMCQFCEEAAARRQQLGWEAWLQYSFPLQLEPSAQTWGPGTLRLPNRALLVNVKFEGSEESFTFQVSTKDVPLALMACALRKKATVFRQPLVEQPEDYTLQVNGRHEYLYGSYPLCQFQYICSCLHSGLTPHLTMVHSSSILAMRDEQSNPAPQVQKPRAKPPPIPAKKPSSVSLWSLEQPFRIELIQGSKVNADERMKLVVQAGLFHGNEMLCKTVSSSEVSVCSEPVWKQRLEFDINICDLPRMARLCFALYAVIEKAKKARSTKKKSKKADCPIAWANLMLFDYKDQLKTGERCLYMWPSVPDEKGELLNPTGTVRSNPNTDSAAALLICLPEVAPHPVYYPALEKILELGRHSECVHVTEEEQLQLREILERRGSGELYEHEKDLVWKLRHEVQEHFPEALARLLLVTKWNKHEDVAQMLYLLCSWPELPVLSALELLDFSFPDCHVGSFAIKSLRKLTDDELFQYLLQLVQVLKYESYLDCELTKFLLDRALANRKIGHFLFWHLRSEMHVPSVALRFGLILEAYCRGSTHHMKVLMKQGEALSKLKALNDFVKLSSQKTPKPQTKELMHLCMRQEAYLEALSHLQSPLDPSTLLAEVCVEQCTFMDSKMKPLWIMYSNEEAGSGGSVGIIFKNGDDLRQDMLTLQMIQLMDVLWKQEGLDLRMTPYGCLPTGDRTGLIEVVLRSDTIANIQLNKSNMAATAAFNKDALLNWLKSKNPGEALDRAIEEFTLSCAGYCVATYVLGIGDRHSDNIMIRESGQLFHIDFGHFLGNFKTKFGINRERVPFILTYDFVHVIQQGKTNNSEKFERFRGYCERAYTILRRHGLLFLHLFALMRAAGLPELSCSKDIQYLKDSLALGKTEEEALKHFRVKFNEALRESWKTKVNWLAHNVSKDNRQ

[2] = biological target: T1, Phosphatidylinositol 4,5-bisphosphate 3-kinase catalytic subunit delta isoform (Homo sapiens); assay: Inhibition of PI3Kdelta (unknown origin) at 0.1 uM using phosphatidylinositol as substrate incubated for 30 mins in presence of ATP by HTRF based assay relative to control
[3] = biological target: T2, Phosphatidylinositol 4,5-bisphosphate 3-kinase catalytic subunit alpha isoform (Homo sapiens, UniProt P42336); assay: Inhibition of PI3Kalpha (unknown origin) at 0.1 uM relative to control
[4] = in vitro; settings: human, liver microsomes
[5] = biological target: T3, Phosphatidylinositol 4,5-bisphosphate 3-kinase catalytic subunit delta isoform (Homo sapiens, UniProt O00329); assay: Inhibition of PI3Kdelta (unknown origin)
T3 sequence (O00329 whole entry): T1 sequence (whole entry)

[6] = biological target: T4, Phosphatidylinositol 4,5-bisphosphate 3-kinase catalytic subunit gamma isoform (Homo sapiens, UniProt P48736); assay: Inhibition of PI3Kgamma (unknown origin)
Target sequence in this assay (P48736 whole entry, canonical isoform): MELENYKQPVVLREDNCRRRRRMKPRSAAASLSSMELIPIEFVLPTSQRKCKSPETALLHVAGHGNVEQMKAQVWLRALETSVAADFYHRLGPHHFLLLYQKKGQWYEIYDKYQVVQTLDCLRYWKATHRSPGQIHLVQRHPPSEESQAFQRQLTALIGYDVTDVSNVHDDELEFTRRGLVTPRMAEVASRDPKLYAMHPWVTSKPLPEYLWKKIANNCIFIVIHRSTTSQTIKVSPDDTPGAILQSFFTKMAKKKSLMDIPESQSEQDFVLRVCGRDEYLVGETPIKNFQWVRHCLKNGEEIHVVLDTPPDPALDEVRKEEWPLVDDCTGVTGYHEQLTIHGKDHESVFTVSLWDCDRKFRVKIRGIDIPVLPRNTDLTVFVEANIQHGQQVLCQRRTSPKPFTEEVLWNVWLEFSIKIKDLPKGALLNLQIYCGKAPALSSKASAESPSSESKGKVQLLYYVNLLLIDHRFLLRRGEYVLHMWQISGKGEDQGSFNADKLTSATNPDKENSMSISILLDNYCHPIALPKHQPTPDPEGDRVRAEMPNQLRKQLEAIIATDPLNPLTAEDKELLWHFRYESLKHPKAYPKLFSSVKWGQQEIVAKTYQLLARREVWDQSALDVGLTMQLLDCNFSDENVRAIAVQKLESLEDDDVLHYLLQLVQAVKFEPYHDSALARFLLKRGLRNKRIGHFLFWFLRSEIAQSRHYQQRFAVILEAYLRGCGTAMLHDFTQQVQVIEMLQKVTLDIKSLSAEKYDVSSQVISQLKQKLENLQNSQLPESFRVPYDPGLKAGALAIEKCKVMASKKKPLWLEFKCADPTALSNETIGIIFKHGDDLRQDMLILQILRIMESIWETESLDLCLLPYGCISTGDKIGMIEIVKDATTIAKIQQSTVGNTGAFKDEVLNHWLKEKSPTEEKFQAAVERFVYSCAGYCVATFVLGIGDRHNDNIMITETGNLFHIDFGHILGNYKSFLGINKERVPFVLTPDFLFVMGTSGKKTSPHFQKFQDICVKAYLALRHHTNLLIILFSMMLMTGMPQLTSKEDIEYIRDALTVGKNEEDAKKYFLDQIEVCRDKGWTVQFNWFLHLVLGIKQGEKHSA

[7] = biological target: T5, Phosphatidylinositol 4,5-bisphosphate 3-kinase catalytic subunit beta isoform (Homo sapiens, UniProt P42338); assay: Inhibition of PI3Kbeta (unknown origin) at 0.1 uM relative to control
Target sequence in this assay (P42338 whole entry, looked up, canonical isoform): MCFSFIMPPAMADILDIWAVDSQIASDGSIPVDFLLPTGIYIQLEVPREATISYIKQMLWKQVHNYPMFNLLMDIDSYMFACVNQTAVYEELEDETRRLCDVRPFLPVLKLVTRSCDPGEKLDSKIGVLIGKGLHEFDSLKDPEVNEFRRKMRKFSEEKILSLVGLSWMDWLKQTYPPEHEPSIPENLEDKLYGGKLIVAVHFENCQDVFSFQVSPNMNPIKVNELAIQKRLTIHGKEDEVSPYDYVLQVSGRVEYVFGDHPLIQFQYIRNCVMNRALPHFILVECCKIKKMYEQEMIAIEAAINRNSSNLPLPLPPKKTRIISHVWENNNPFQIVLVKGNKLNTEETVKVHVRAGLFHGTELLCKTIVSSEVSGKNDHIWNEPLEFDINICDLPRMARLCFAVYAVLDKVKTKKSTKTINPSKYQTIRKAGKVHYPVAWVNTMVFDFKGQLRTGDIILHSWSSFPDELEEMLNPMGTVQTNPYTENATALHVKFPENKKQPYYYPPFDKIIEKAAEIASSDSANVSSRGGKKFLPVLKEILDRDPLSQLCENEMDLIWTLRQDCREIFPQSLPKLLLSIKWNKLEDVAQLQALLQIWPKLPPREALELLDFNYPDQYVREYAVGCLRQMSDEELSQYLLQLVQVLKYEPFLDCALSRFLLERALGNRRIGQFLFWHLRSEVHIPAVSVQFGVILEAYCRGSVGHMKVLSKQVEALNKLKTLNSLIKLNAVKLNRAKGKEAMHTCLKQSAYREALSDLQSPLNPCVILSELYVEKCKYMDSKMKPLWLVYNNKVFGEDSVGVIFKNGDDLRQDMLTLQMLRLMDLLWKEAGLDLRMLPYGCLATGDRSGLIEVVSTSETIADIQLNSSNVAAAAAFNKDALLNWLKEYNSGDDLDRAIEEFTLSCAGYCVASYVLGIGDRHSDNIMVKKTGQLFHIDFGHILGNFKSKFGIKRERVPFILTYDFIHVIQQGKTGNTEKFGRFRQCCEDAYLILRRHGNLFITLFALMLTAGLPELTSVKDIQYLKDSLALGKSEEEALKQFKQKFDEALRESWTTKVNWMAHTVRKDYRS

[8] = human, microsomes, 10 µM
[9] = biological target: T2, Phosphatidylinositol 4,5-bisphosphate 3-kinase catalytic subunit alpha isoform; assay: Inhibition of PI3Kalpha (unknown origin)
[10] = biological target: T5, Phosphatidylinositol 4,5-bisphosphate 3-kinase catalytic subunit beta isoform; assay: Inhibition of PI3Kbeta (unknown origin)
Target sequence in this assay (P42338 whole entry, canonical isoform): as the sequence (P42338 whole entry, looked up, canonical isoform) above

[11] = biological target: T4, Phosphatidylinositol 4,5-bisphosphate 3-kinase catalytic subunit gamma isoform; assay: Inhibition of PI3Kgamma (unknown origin) at 0.1 uM relative to control
Target sequence in this assay (P48736 whole entry, looked up, canonical isoform): as the sequence (P48736 whole entry, canonical isoform) above

T2 sequence (P42336 whole entry, canonical isoform): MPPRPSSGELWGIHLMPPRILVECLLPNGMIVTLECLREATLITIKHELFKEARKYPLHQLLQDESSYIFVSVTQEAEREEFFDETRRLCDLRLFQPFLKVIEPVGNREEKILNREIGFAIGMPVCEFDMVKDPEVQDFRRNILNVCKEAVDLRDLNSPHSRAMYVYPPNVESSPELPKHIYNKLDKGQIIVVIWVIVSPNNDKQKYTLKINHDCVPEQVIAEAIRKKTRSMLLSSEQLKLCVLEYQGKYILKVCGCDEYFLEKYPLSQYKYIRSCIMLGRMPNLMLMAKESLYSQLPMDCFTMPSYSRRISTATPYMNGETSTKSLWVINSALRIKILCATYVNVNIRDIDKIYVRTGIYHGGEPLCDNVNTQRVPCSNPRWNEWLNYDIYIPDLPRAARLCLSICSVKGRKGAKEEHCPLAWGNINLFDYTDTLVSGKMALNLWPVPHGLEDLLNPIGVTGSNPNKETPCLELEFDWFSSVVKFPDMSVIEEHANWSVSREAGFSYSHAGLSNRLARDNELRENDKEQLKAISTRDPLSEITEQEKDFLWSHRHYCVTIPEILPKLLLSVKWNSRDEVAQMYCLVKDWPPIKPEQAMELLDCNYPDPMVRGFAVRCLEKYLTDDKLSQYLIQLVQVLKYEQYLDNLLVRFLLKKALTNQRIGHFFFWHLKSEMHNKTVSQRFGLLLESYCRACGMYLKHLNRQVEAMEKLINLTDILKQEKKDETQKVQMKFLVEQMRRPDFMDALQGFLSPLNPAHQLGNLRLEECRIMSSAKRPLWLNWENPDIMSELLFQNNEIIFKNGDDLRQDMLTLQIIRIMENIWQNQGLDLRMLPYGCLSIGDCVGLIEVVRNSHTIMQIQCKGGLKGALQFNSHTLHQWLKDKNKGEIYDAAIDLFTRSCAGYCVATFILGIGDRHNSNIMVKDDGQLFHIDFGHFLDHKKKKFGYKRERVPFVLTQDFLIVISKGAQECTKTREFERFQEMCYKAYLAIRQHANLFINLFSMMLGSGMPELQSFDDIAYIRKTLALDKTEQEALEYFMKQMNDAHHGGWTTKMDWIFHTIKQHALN

Row | inhibition [1] | inhibition [2] | half-life at 60 h, 10 µM [4] | IC50 [5] | CLH [8] | Compound | other results
1 | 4% | 26% | – | – | – | O=c1c2c(Cl)cccc2nc([C@@H]2CC(F)(F)CN2c2ncnc3[nH]ccc23)n1-c1ccccc1 | –
2 | 2% | 6% | – | – | – | Nc1nc(N2[C@H](c3nc4cccc(Cl)c4c(=O)n3-c3ccccc3)C[C@@H]3CCCC[C@@H]32)c2nc[nH]c2n1 | –
3 | – | – | 1.83 h | 0.01 µM | 12.6 mL/min/g | C[C@H]1CC[C@@H](c2nc3cccc(Cl)c3c(=O)n2N2CCOCC2)N1c1ncnc(N)c1C#N | inhibition [3]: 5%; IC50 [6]: 0.295 µM; inhibition [7]: 45%
4 | 17% | 47% | 0.03 h | 0.067 µM | 767 mL/min/g | C=CCO[C@@H]1C[C@@H](c2nc3cccc(Cl)c3c(=O)n2-c2ccccc2)N(c2ncnc(N)c2C#N)C1 | –
5 | 23% | 83% | 0.837 h | 0.02 µM | 27.6 mL/min/g | N#Cc1c(N)ncnc1N1CC2(CC2)C[C@H]1c1nc2cccc(Cl)c2c(=O)n1-c1ccccc1 | IC50 [9]: > 1 µM; IC50 [10]: > 1 µM; IC50 [6]: 0.655 µM
6 | – | – | 2.1 h | 0.014 µM | 11 mL/min/g | N#Cc1c(N)ncnc1N1[C@H](c2nc3cccc(Cl)c3c(=O)n2N2CCOCC2)C[C@@H]2CCCC[C@@H]21 | inhibition [3]: 24%; inhibition [11]: 5%; inhibition [7]: 43%
7 | -1% | 1% | – | – | – | O=c1c2c(Cl)cccc2nc([C@@H]2C[C@@H]3CCCC[C@@H]3N2c2nc(Cl)nc3[nH]cnc23)n1-c1ccccc1 | –
8 | -1% | 0% | – | – | – | N#Cc1cccnc1N1[C@H](c2nc3cccc(Cl)c3c(=O)n2-c2ccccc2)C[C@@H]2CCCC[C@@H]21 | –
9 | – | – | 2.31 h | 0.034 µM | 10 mL/min/g | N#Cc1c(N)ncnc1N1[C@H](c2nc3cccc(Cl)c3c(=O)n2-c2cccc(F)c2)C[C@@H]2CCCC[C@@H]21 | inhibition [3]: 4%; inhibition [11]: 5%; inhibition [7]: 17%
10 | – | – | > 2 h | 0.142 µM | < 12 mL/min/g | N#Cc1c(N)ncnc1N1[C@H](c2nc3cccc(Cl)c3c(=O)n2-c2cc(F)cc(F)c2)C[C@@H]2CCCC[C@@H]21 | IC50 [9]: > 1 µM; IC50 [10]: > 1 µM; IC50 [6]: > 1 µM
11 | – | – | 1.02 h | 0.005 µM | 22.6 mL/min/g | C[C@H]1CC[C@@H](c2nc3cccc(Cl)c3c(=O)n2-c2ccccc2)N1c1ncnc(N)c1C#N | IC50 [9]: > 1 µM; IC50 [10]: 0.968 µM; IC50 [6]: 0.144 µM
12 | – | – | 1.72 h | 0.004 µM | 13.4 mL/min/g | C[C@H]1CC[C@@H](c2nc3cccc(Cl)c3c(=O)n2-c2cccnc2)N1c1ncnc(N)c1C#N | inhibition [3]: 18%; IC50 [6]: 0.351 µM; inhibition [7]: 45%
13 | 1% | 3% | – | – | – | O=c1c2c(Cl)cccc2nc([C@@H]2C[C@@H]3CCCC[C@@H]3N2c2ncnc3[nH]ccc23)n1-c1ccccc1 | –
14 | – | – | 9.62 h | 0.305 µM | 2.4 mL/min/g | N#Cc1c(N)ncnc1N1[C@H](c2nc3cccc(F)c3c(=O)n2-c2cc(F)cc(F)c2)C[C@@H]2CCCC[C@@H]21 | IC50 [9]: > 1 µM; IC50 [10]: > 1 µM; IC50 [6]: > 1 µM
15 | -3% | -3% | – | – | – | O=c1c2c(Cl)cccc2nc([C@@H]2C[C@@H]3CCCC[C@@H]3N2c2ncnc3[nH]ncc23)n1-c1ccccc1 | –
16 | -1% | -1% | – | – | – | Cc1ccnc(N2[C@H](c3nc4cccc(Cl)c4c(=O)n3-c3ccccc3)C[C@@H]3CCCC[C@@H]32)n1 | –

Second part, the compound before the results:

Row | Compound | inhibition [1] | inhibition [2] | half-life at 60 h, 10 µM [4] | IC50 [5] | CLH [8] | other results
17 | C=CCO[C@@H]1C[C@@H](c2nc3cccc(Cl)c3c(=O)n2-c2ccccc2)N(c2ncnc3[nH]cnc23)C1 | 1% | 8% | – | – | – | –
18 | Nc1ccnc(N2[C@H](c3nc4cccc(Cl)c4c(=O)n3-c3ccccc3)C[C@@H]3CCCC[C@@H]32)n1 | -1% | -3% | – | – | – | –
19 | C[C@H]1CC[C@@H](c2nc3cccc(Cl)c3c(=O)n2-c2ccccc2)N1c1nc(N)nc2[nH]cnc12 | – | – | 6.08 h | 0.025 µM | 3.8 mL/min/g | inhibition [3]: 22%; IC50 [6]: 0.038 µM; inhibition [7]: 69%
20 | O=c1c2c(Cl)cccc2nc([C@@H]2CC(F)(F)CN2c2ncnc3[nH]cnc23)n1-c1ccccc1 | 4% | 34% | – | – | – | –
21 | Nc1nc(N2CC(F)(F)C[C@H]2c2nc3cccc(Cl)c3c(=O)n2-c2ccccc2)c2nc[nH]c2n1 | 11% | 50% | – | – | – | –
22 | Nc1nc(N2CCC[C@H]2c2nc3cccc(Cl)c3c(=O)n2-c2ccccc2)c2nc[nH]c2n1 | – | – | 1.06 h | – | 21.8 mL/min/g | –
23 | C=CCO[C@@H]1C[C@@H](c2nc3cccc(Cl)c3c(=O)n2-c2ccccc2)N(c2nc(N)nc3[nH]cnc23)C1 | 7% | 42% | – | – | – | –
24 | C[C@H]1CC[C@@H](c2nc3cccc(Cl)c3c(=O)n2-c2cccc(F)c2)N1c1ncnc(N)c1C#N | – | – | 2.22 h | 0.003 µM | 10.4 mL/min/g | IC50 [9]: > 1 µM; IC50 [10]: > 1 µM; IC50 [6]: 0.199 µM
25 | C=CCO[C@@H]1C[C@@H](c2nc3cccc(Cl)c3c(=O)n2-c2ccccc2)N(c2ncnc3[nH]ccc23)C1 | 2% | 7% | – | – | – | –
26 | C[C@H]1CC[C@@H](c2nc3cccc(Cl)c3c(=O)n2-c2cccc(F)c2)N1c1ncnc2[nH]ccc12 | – | – | – | 0.03 µM | – | inhibition [3]: 19%; IC50 [6]: 0.074 µM
27 | C=C1C[C@@H](c2nc3cccc(Cl)c3c(=O)n2-c2ccccc2)N(c2ncnc3[nH]ccc23)C1 | 12% | 59% | – | – | – | –
28 | O=c1c2c(Cl)cccc2nc([C@@H]2C[C@@H]3CCCC[C@@H]3N2c2nccc(Cl)n2)n1-c1ccccc1 | -2% | -2% | – | – | – | –
29 | O=c1c2c(Cl)cccc2nc([C@@H]2CC3(CC3)CN2c2ncnc3[nH]ccc23)n1-c1ccccc1 | 2% | 8% | – | – | – | –
30 | C=C1C[C@@H](c2nc3cccc(Cl)c3c(=O)n2-c2ccccc2)N(c2nc(N)nc3[nH]cnc23)C1 | 52% | 96% | – | – | – | –
31 | C=C1C[C@@H](c2nc3cccc(Cl)c3c(=O)n2-c2ccccc2)N(c2ncnc3[nH]cnc23)C1 | 28% | 75% | – | – | – | –
32 | C[C@H]1CC[C@@H](c2nc3cccc(Cl)c3c(=O)n2-c2cccc(F)c2)N1c1nc(N)nc2[nH]cnc12 | – | – | – | 0.009 µM | – | inhibition [3]: 42%; IC50 [6]: 0.009 µM; inhibition [7]: 43%
33 | C=C1C[C@@H](c2nc3cccc(Cl)c3c(=O)n2-c2ccccc2)N(c2ncnc(N)c2C#N)C1 | 79% | 102% | 0.223 h | 0.003 µM | 103.8 mL/min/g | IC50 [9]: > 1 µM; IC50 [10]: 0.819 µM; IC50 [6]: 0.25 µM
34 | O=c1c2c(Cl)cccc2nc([C@@H]2CC3(CC3)CN2c2ncnc3[nH]cnc23)n1-c1ccccc1 | 3% | 32% | – | – | – | –
35 | O=c1c2c(Cl)cccc2nc([C@@H]2C[C@@H]3CCCC[C@@H]3N2c2ncnc3[nH]cnc23)n1-c1ccccc1 | 0% | 8% | – | – | – | –
36 | Nc1nc(N2CC3(CC3)C[C@H]2c2nc3cccc(Cl)c3c(=O)n2-c2ccccc2)c2nc[nH]c2n1 | 8% | 44% | – | – | – | –
37 | N#Cc1c(N)ncnc1N1[C@H](c2nc3cccc(Cl)c3c(=O)n2-c2cccnc2)C[C@@H]2CCCC[C@@H]21 | – | – | 4.28 h | 0.05 µM | 5.4 mL/min/g | inhibition [3]: 17%; inhibition [11]: 3%; inhibition [7]: 17%
